Laboratory results taken from ChEMBL document CHEMBL5725356, “Anti-fibrotic pyridinones” (2017).
pEC50: −log10 of the molar value.

assay: ET-1 Assay: Fibroblasts (primary human lung and dermal, HFL-1, 3T3 etc) are seeded in 96-well plates at ~15000 cells/well and serum starved for 0-48 hours. After media exchange, compounds serially diluted in DMSO are added to the cells. After a brief incubation of ~30 min, stimulants (TGFb, serum, LPA etc) are added followed by further incubation for 16-48 hours. Media is then harvested and stored frozen in plate format for later endothelin-1 (ET-1) determination by ELISA. Toxicity measurements are made using the ATPlite kit (Perkin-Elmer). ET-1 is quantified using an ELISA kit (R&D Systems). The amount of ET-1 produced in the assay wells are back-calculated using the ELISA standard. The ability of a compound to inhibit ET-1 production is typically analyzed by fitting dose-response curves to a 4-parameter logistic function to obtain an EC50 value.; conditions: HFL1

| SMILES | pEC50 | EC50 |
| --- | --- | --- |
| O=c1cc(NCc2ccccn2)ccn1-c1ccc(OC(F)(F)F)cc1 | > 4.30 | – |
| CCn1ccc2c(-c3ccc(F)cc3)cn(-c3ccc(OC(F)(F)F)cc3)c(=O)c21 | > 4.30 | – |
| CCn1cnc2c(-c3cnn(C)c3)cn(-c3ccc(OC(F)(F)F)cc3)c(=O)c21 | > 4.30 | – |
| O=c1c2cccnc2c(-c2cn[nH]c2)cn1-c1ccc(OC(F)(F)F)cc1 | < 3.70 | – |
| CCOc1ccc(CNc2cc(=O)n(-c3ccc(OC(F)(F)F)cc3)cc2-c2cnn(C)c2)c(F)c1 | > 4.30 | – |
| CCn1ccc2ccn(-c3ccc(OC(F)(F)F)cc3)c(=O)c21 | > 4.30 | – |
| O=c1c2[nH]ccc2c(-c2ccc(F)cc2)cn1-c1ccc(OC(F)(F)F)cc1 | > 4.30 | – |
| CCOc1ccc(-n2cc(-c3cn[nH]c3)c3ccn(C)c3c2=O)c(C)c1 | > 4.30 | – |
| CCn1ccc2c(-c3cnn(C)c3)c[nH]c(=O)c21 | > 4.30 | – |
| Cn1cc(-c2cn(-c3ccc(Cl)cc3)c(=O)cc2Oc2ccccc2)cn1 | > 4.30 | – |
| CCOc1ccc(-n2cc(-c3cnn(C)c3)c(OCCOC)cc2=O)c(C)c1 | > 4.30 | – |
| Cn1cc(C2=CN(c3ccc(OC(F)(F)F)cc3)CC=C2Oc2ccc(C(N)=O)cc2)cn1 | > 4.30 | – |
| Cn1ccc2c(-c3cn[nH]c3)cn(-c3ccc(Cl)cc3)c(=O)c21 | > 4.30 | – |
| O=c1c2[nH]ccc2c(-c2cn[nH]c2)cn1-c1ccc(Cl)cc1 | > 4.30 | – |
| Cc1nc2c(-c3cn[nH]c3)cn(-c3ccc(OC(F)(F)F)cc3)c(=O)c2s1 | > 4.30 | – |
| Cn1ccc2c(-c3cn[nH]c3)cn(-c3ccc(OC(F)(F)F)cc3)c(=O)c21 | > 4.30 | – |
| CCOc1ccc(-n2cc(-c3cnn(C)c3)c(NCc3ccccc3)cc2=O)c(C)c1 | > 4.30 | – |
| O=c1c2nccnc2c(-c2cnn(CCO)c2)cn1-c1ccc(OC(F)(F)F)cc1 | – | in the range around 125 µM |
| Cc1cc(=O)n(-c2ccc(OC(F)(F)F)cc2)cc1-c1cccc2[nH]c(=O)oc12 | < 3.70 | – |
| O=c1cc(NCc2ncccn2)ccn1-c1ccc(OC(F)(F)F)cc1 | < 3.70 | – |
| CC(=O)Nc1cccc(-n2cc(-c3ccc(F)cc3)c(Oc3ccccc3)cc2=O)c1 | > 4.30 | – |
| Cn1cc(-c2cn(-c3ccc(OC(F)(F)F)cc3)c(=O)cc2NCc2ncccn2)cn1 | < 3.70 | – |
| Cn1cc(-c2cn(-c3ccc(OC(F)(F)F)cc3)c(=O)c3c2ccn3CCO)cn1 | > 4.30 | – |
| Cc1nc2c(-c3cnn(Cc4ccccc4)c3)cn(-c3ccc(OC(F)(F)F)cc3)c(=O)c2s1 | > 4.30 | – |
| Cn1cc(-c2cn(-c3ccc(OC(F)(F)F)cc3)c(=O)c3[nH]ccc23)cn1 | > 4.30 | – |

| SMILES | pEC50 | EC50 |
| --- | --- | --- |
| Cn1cc(-c2cn(-c3ccc(F)cc3)c(=O)cc2Oc2ccccc2)cn1 | > 4.30 | – |
| CCOc1ccc(CNc2cc(=O)n(-c3ccc(OC(F)(F)F)cc3)cc2-c2cnn(C)c2)cc1 | > 4.30 | – |
| CCOc1ccc(-n2cc(-c3ccc(F)cc3)c(Cl)cc2=O)c(C)c1 | < 3.70 | – |
| Cn1cc(-c2cn(-c3ccc(Cl)cc3)c(=O)c3c2ccn3C)cn1 | > 4.30 | – |
| Cc1nc2ccn(-c3ccc(OC(F)(F)F)cc3)c(=O)c2s1 | < 3.70 | – |
| Cc1cc(=O)n(-c2ccccc2NC(N)=O)cc1-c1ccc(F)cc1 | > 4.30 | – |
| Cc1nc2c(=O)n(-c3ccc(OC(F)(F)F)cc3)cc(-c3cnn(C)c3)c2o1 | > 4.30 | – |
| O=c1c2nccnc2ccn1-c1ccc(OC(F)(F)F)cc1 | > 4.30 | – |
| COCCOc1ccc(-n2cc(-c3cnn(C)c3)c(Oc3ccccc3)cc2=O)cc1 | > 4.30 | – |
| CCn1ccc2c(-c3ccc(F)cc3)c[nH]c(=O)c21 | > 4.30 | – |
| Cc1cc(=O)n(-c2ccc(OC(F)(F)F)cc2)cc1-c1ccc2c(c1)oc(=O)n2CCO | – | in the range around 125 µM |
| Cn1cc(-c2cn(-c3ccc(OC(F)(F)F)cc3)c(=O)c3scnc23)cn1 | > 4.30 | – |
| Cn1cc(-c2cn(-c3ccc(OC(F)(F)F)cc3)c(=O)c3[nH]ncc23)cn1 | < 3.70 | – |
| Cc1nc2c(=O)n(-c3ccc(OC(F)(F)F)cc3)ccc2o1 | < 3.70 | – |
| Cn1cc(-c2cn(-c3ccc(C#N)cc3)c(=O)c3c2ccn3C)cn1 | < 3.70 | – |
| Cc1cc(=O)n(-c2ccc(OC(F)(F)F)cc2)cc1-c1ccc2oc(=O)[nH]c2c1 | > 4.30 | – |
| Cn1cc(-c2cn(-c3ccc(OC(F)(F)F)cc3)c(=O)c3c2ccn3Cc2ccccc2)cn1 | > 4.30 | – |
| Cn1cc(-c2c[nH]c(=O)cc2NCc2ccccn2)cn1 | – | in the range around 125 µM |
| Cc1cc(=O)n(-c2ccc(OC(F)(F)F)cc2)cc1-c1ccc2c(c1)OCC(=O)N2CCO | < 3.70 | – |
| O=c1c2scnc2c(-c2cn[nH]c2)cn1-c1ccc(OC(F)(F)F)cc1 | > 4.30 | – |
| Cn1cc(-c2cn(-c3ccc(O)cc3)c(=O)cc2Oc2ccccc2)cn1 | < 3.70 | – |
| CCOc1ccc(-n2cc(-c3cn[nH]c3)c3nccnc3c2=O)c(C)c1 | > 4.30 | – |
| Cc1nc2c(=O)n(-c3ccc(OC(F)(F)F)cc3)cc(-c3ccc(F)cc3)c2o1 | < 3.70 | – |
| CCn1c(=O)oc2c(-c3cn(-c4ccc(OC(F)(F)F)cc4)c(=O)cc3C)cccc21 | < 3.70 | – |
| Cn1cc(-c2c[nH]c(=O)c3[nH]ccc23)cn1 | > 4.30 | – |

| SMILES | pEC50 | EC50 |
| --- | --- | --- |
| O=c1c2[nH]ccc2c(-c2cn[nH]c2)cn1-c1ccc(OC(F)(F)F)cc1 | > 4.30 | – |
| CCOc1ccc(-n2cc(-c3cn[nH]c3)c3cc[nH]c3c2=O)c(C)c1 | > 4.30 | – |
| N#Cc1ccc(-n2cc(-c3cn[nH]c3)c3cc[nH]c3c2=O)cc1 | – | in the range around 125 µM |
| CCn1ccc2c(-c3cnn(CCO)c3)cn(-c3ccc(OC(F)(F)F)cc3)c(=O)c21 | > 4.30 | – |
| Cn1cc(-c2cn(-c3ccc(Cl)cc3)c(=O)c3cccnc23)cn1 | < 3.70 | – |
| COCCOc1ccc(Oc2cc(=O)n(-c3ccc(OC(F)(F)F)cc3)cc2-c2cnn(C)c2)cc1 | – | in the range around 125 µM |
| N#Cc1ccc(-n2cc(-c3cn[nH]c3)c3ncccc3c2=O)cc1 | < 3.70 | – |
| Cc1nc2c(-c3cnn(C)c3)cn(-c3ccc(OC(F)(F)F)cc3)c(=O)c2s1 | > 4.30 | – |
| CCn1c(=O)oc2ccc(-c3cn(-c4ccc(OC(F)(F)F)cc4)c(=O)cc3C)cc21 | < 3.70 | – |
| N#Cc1ccc(-n2cc(-c3cn[nH]c3)c3nccnc3c2=O)cc1 | < 3.70 | – |
| Cc1cc(=O)[nH]cc1-c1ccc2c(c1)OCC(=O)N2C | > 4.30 | – |
| Cn1cc(-c2c[nH]c(=O)cc2NCc2ncccn2)cn1 | > 4.30 | – |
| Cn1ccc2c(-c3cn[nH]c3)cn(-c3ccc(C#N)cc3)c(=O)c21 | > 4.30 | – |
| Cn1cc(-c2cn(-c3ccc(OC(F)(F)F)cc3)c(=O)cc2NCc2cncnc2)cn1 | > 4.30 | – |
| Cn1cc(-c2cn(-c3ccc(Cl)cc3)c(=O)c3[nH]ccc23)cn1 | > 4.30 | – |
| CCOc1ccc(-n2cc(-c3cn[nH]c3)c3ncccc3c2=O)c(C)c1 | > 4.30 | – |
| Cc1cc(=O)[nH]cc1-c1cccc2c1OC(F)(F)O2 | > 4.30 | – |
| Cn1cc(-c2cn(-c3cccc(NC(N)=O)c3)c(=O)cc2Oc2ccccc2)cn1 | > 4.30 | – |
| CCn1c(=O)oc2ccc(-c3c[nH]c(=O)cc3C)cc21 | > 4.30 | – |
| CCn1ccc2c(-c3cn[nH]c3)cn(-c3ccc(OC(F)(F)F)cc3)c(=O)c21 | > 4.30 | – |
| CCOc1ccc(-n2cc(-c3ccc4scnc4c3)c(C)cc2=O)c(C)c1 | < 3.70 | – |
| O=c1c2[nH]ccc2ccn1-c1ccc(OC(F)(F)F)cc1 | > 4.30 | – |
| Cc1cc(=O)n(-c2ccc(F)c(NC(N)=O)c2)cc1-c1ccc(F)cc1 | > 4.30 | – |
| Cn1cc(-c2cn(-c3ccc(OC(F)(F)F)cc3)c(=O)cc2NCc2ccc(C#N)cc2F)cn1 | > 4.30 | – |
